# Results reported in US12427200B2 (priority 2019, dated 2025).
# Several values for one entry are separate records, joined by “and”; a condition that tells them apart may be missing. Equal entries are not always repeated. Where two headings read alike, the source gives them in different places.
# Legend:
# [1] = test system: Influenza A/Anhui/1/2013 (H7N9); assay: microbe, parasite or virus in culture; conditions: H7N9, MDCK
# [2] = test system: Influenza B/Brisbane/60/2008; assay: microbe, parasite or virus in culture; conditions: MDCK, read-out: EC50, B/Brisbane/60/2008 (Victoria lineage)
# [3] = test system: Influenza B/Florida/4/2006; assay: microbe, parasite or virus in culture; conditions: MDCK
# [4] = target: neuraminidase of live influenza A (H1N1) viruses (Influenza A virus, UniProt C3W6G3); assay: biochemical; assay type: biochemical
# [5] = target: neuraminidase of live influenza A (H1N1) viruses (Influenza A virus, UniProt P03468); assay: biochemical; assay type: biochemical
# [6] = target: neuraminidase of influenza B viruses (Influenza B virus, UniProt A0A1X9RX69); assay type: biochemical
# [7] = test system: neuraminidase of live influenza A (H3N2) viruses; assay: biochemical; design: species or system Influenza A virus; conditions: read-out: neuraminidase inhibition (median IC50)
# [8] = test system: INFV A (A/CA/09 H1N1); assay: microbe, parasite or virus in culture; assay type: cell-based, Influenza A virus; conditions: read-out: EC50 vs INFV A
# [9] = test system: influenza A H1N1 strains; design: species or system Influenza A virus; conditions: read-out: cell-based cytopathic effect assay (median EC50)
# [10] = test system: lung cytokines; design: species or system BALB/c mice; conditions: mouse, in vivo, po
# [11] = test system: A/Anhui/01/2013 (H7N9); assay type: cell-based, Influenza A virus
# [12] = test system: influenza A/Puerto Rico/8/1934 (H1N1); design: species or system BALB/c mice; conditions: mouse, in vivo
# [13] = test system: influenza A/CA/07/2009; design: species or system BALB/c mice; conditions: mouse, in vivo, po, 5 mg/kg
# [14] = test system: lung cytokines; design: species or system BALB/c mice; conditions: mouse, in vivo, po, 5 mg/kg
# [15] = test system: influenza A/CA/07/2009 (H1N1) pdm; assay type: cell-based, Influenza A virus
# [16] = test system: influenza A/Ca/07/2009 (H1N1)pdm; assay type: cell-based, Influenza A virus
# [17] = test system: A/turkey/Turkey/1/2005 (H5N1, clade 2.2); assay type: cell-based, Influenza A virus
# [18] = test system: A/Vietnam/1203/2004 (H5N1); design: species or system BALB/c mice; conditions: mouse, in vivo
# [19] = test system: B (B/Malaysia/2506/2004); assay type: cell-based, Influenza B virus
# [20] = test system: H7N9 isolate (high path influenza A); assay type: cell-based, Influenza A virus
# [21] = test system: A/PR/8/34 (H1N1); design: species or system BALB/c mice; conditions: mouse, in vivo
# [22] = test system: neuraminidase of live influenza A (H1N1) viruses; assay: biochemical; assay type: biochemical, Influenza A virus; conditions: read-out: neuraminidase inhibition (median IC50)
# [23] = test system: H3N2 A/Hong Kong/1/68; assay type: in vivo, mouse; conditions: 15 days
# [24] = test system: influenza A/WSN/1933; assay type: cell-based, Influenza A virus
# [25] = test system: A/Puerto Rico/8/1934 (H1N1); design: species or system BALB/c mice; conditions: mouse, in vivo
# [26] = test system: H3N2 WT (A/Washington/12/2007); assay type: cell-based, Influenza A virus
# [27] = test system: A/Puerto Rico/8/1934 (H1N1); conditions: mouse, in vivo
# [28] = test system: influenza A/PR/8/1934; design: species or system BALB/c mice; conditions: mouse, in vivo; for Log reduction PFU/g / Viral burden PFU/g: po
# [29] = test system: A/Puerto Rico/08/1934 (H1N1), PR8; assay type: in vivo, mouse; conditions: 10 days
# [30] = test system: influenza B; assay type: cell-based, Influenza B virus
# [31] = test system: A/Netherlands/602/2009 (H1N1); assay type: cell-based, Influenza A virus
# [32] = test system: influenza B strains; design: species or system Influenza B virus; conditions: read-out: cell-based cytopathic effect assay (median EC50)
# [33] = test system: A/CA/12/12 (H1N1); design: species or system BALB/c mice; conditions: mouse, in vivo
# [34] = test system: A/Indonesia/5/2005 (H5N1, clade 2.1); assay type: cell-based, Influenza A virus
# [35] = test system: A/Texas/36/91 (H1N1); design: species or system BALB/c mice; conditions: mouse, in vivo
# [36] = test system: A/Texas/36/91 (H1N1); conditions: mouse, in vivo
# [37] = test system: H1N1 WT (A/California/12/2012); assay type: cell-based, Influenza A virus
# [38] = test system: H5N1 isolates (high path influenza A); assay type: cell-based, Influenza A virus
# [39] = test system: influenza A H3N2 strains; design: species or system Influenza A virus; conditions: read-out: cell-based cytopathic effect assay (median EC50)
# [40] = test system: A/Hong Kong/156/1997 (H5N1, clade 0); assay type: cell-based, Influenza A virus
# [41] = test system: neuraminidase of influenza B viruses; assay type: biochemical; conditions: read-out: neuraminidase inhibition (median IC50)
# [42] = test system: B/Brisbane/60/2008; design: species or system BALB/c mice; conditions: mouse, in vivo
# [43] = test system: INFV B (B/Brisbane); assay: microbe, parasite or virus in culture; assay type: cell-based, Influenza B virus; conditions: read-out: EC50 vs INFV B
# [44] = test system: INF-γ, TNF-α, IL-6, MIP-1α, MCP-1 in lung homogenate; design: species or system BALB/c mice; conditions: mouse, in vivo
# [45] = read-out: IC50 for viral replication
# [46] = read-out: microneutralization (IC50)
smiles,measurement,setting,value
NC(=O)c1ncn([C@@H]2O[C@H](CO)[C@@H](O)[C@H]2O)n1 [ribavirin],EC50,[1],14000 nM
same,EC50,"[1]; read-out: EC50, A/Anhui/1/2013 (H7N9) (zoonotic avian)",14000 nM
same,EC50,[2],3300 nM
same,EC50,[3],3250 nM
same,EC50,"[3]; read-out: EC50, B/Florida/4/2006 (Yamagata lineage)",3250 nM
C#CCOCCOCCOCCOCCN(CCOCCN(C)C(=O)O[C@@H]([C@@H]1OC(C(=O)O)=C[C@H](NC(=N)N)[C@H]1NC(C)=O)[C@H](O)CO)CCOCCN(C)C(=O)O[C@@H]([C@@H]1OC(C(=O)O)=C[C@H](NC(=N)N)[C@H]1NC(C)=O)[C@H](O)CO [Int-83],IC50,[4],28.6 nM
same,IC50,[5],4.23 nM
same,IC50,[6],125 nM
"CCOC(=O)C1=C[C@@H](OC(CC)CC)[C@H](NC(C)=O)[C@@H](N)C1 [Oseltamivir, oseltamivir]",IC50,[7],[…]
same,EC50,[8],390 nM
same,EC50,[9],2410 nM
same,IL-6,[10]; 5 mg/kg,714.2 pg/mL
same,MCP-1,[10]; 5 mg/kg,5301.6 pg/mL
same,KC,[10]; 50 mg/kg,2705.5 pg/mL
same,MCP-1,[10]; 50 mg/kg,4572.8 pg/mL
same,MIP-1α,[10]; 50 mg/kg,948.2 pg/mL
same,TNF-α,[10]; 50 mg/kg,501.7 pg/mL
same,EC100 (CPE in MDCK cells),[11],~500 to 1000 nM
same,Log reduction (PFU/mL),[12],0.24 Log and 0.52 Log
same,Log reduction PFU/g,[13],−0.08
same,Viral burden PFU/g,[13],2.05E+07 PFU/g
same,IL-6,[14],714.2 pg/mL
same,EC50,[15],18.5 nM and 34.2 nM
same,EC50,"[16]; read-out: EC50, MOI 0.1",> 10000 nM
same,EC50,"[16]; read-out: EC50, MOI 1",> 10000 nM
same,EC100 (CPE in MDCK cells),[17],~125 to 250 nM
same,Protection,[18],90%
same,EC50,[19],22.1 nM
same,IC50,[20]; [45],≥ 300 nM
same,IC50,[20]; [46],> 300 nM
same,Day until which death was delayed,[21],10 days
same,Survival,[21],0%
same,Survival / protection,[21],80%
same,% Survival,[23],80%
same,EC50,"[24]; read-out: EC50, MOI 0.001",3910 nM
same,EC50,"[24]; read-out: EC50, MOI 0.01",> 10000 nM
same,EC50,"[24]; read-out: EC50, MOI 0.1",> 10000 nM
same,EC50,"[24]; read-out: EC50, MOI 1",> 10000 nM
same,EC50,"[24]; read-out: EC50, MOI 10",> 10000 nM
same,Survival,[25],0%
same,Survival,[25]; 200 mg/kg,40%
same,EC50,[26],29.6 nM
same,day by which mice reached mortality,[27],≤ 8 days
same,loss of body weight,[27],14%
same,protection (survival),[27],fully protected
same,Viral load reduction,[28],ca. 0.8 log
same,Log reduction PFU/g,[28]; 5 mg/kg,0.83
same,Viral burden PFU/g,[28]; 5 mg/kg,2.86E+06 PFU/g
same,Log reduction PFU/g,[28]; 50 mg/kg,0.86
same,Viral burden PFU/g,[28]; 50 mg/kg,2.66E+06 PFU/g
same,% Survival,[29],20%
same,EC50,"[30]; read-out: CPE against influenza B, EC50, B/Brisbane",969 nM
same,EC50,"[30]; read-out: CPE against influenza B, EC50, B/Florida",> 10000 nM
same,EC50,"[30]; read-out: CPE against influenza B, EC50, B/Malaysia",5690 nM
same,EC100 (CPE in MDCK cells),[31],~1000 nM
same,IC50,[31]; [45],≥ 300 nM
same,IC50,[31]; [46],> 300 nM
same,EC50,[32],758 nM
same,Protection from lethal challenge,[33],unprotective
same,Survival,[33],40%
same,EC100 (CPE in MDCK cells),[34],~200 to 500 nM
same,Protection,[35],no protection
same,Survival,[35],40%
same,Survival,[35]; 200 mg/kg,80%
same,% Survival (Day 14),[36],100%
same,EC50,[37],> 100 nM
same,IC50,[38]; [45],≥ 300 nM and 169 nM
same,IC50,[38]; [46],169 nM and > 300 nM
same,EC50,[39],8180 nM
same,EC100 (CPE in MDCK cells),[40],>1000 nM
same,Survival,[42],40%
same,EC50,[43],1060 nM
same,IL-6 lung cytokine level,[44],1.8 and 1.4
same,INF-γ lung cytokine level,[44],1.0 and 0.8
same,MCP-1 lung cytokine level,[44],24.0 and 16.2
same,MIP-1a lung cytokine level,[44],6.3 and 4.0
same,TNF-α lung cytokine level,[44],0.8
